For data set [1], the system named is SH-SY5Y cells. As to the kind of experiment: Nuclear count from microscopy images (cellular growth and toxicity). Further: reference of the scale not given here. The note with it: PKIS2 primary screening.
Data set [2] deals with SH-SY5Y cells. Nature of the data set: AK (adenylate kinase) release ToxiLight cytotoxicity assay. Further: reference of the scale not given here. The note with it: PKIS2 primary screening.
A further data set concerns endogenous TFE3. Nature of the data set: TFE3 nuclear translocation, immunocytochemistry high-content imaging. It counts as cell-based.
The test system of data set [3] is SH-SY5Y cells.
From the text: The PKIS2 Library was supplied by The Structural Genomics Consortium at the University of North Carolina at Chapel Hill.
The test system of another data set is endogenous TFEB. Nature of the data set: TFEB nuclear translocation, immunocytochemistry high-content imaging. It counts as cell-based.
[4] abbreviates: PKIS2 primary screening, DQ Red BSA intensity.
Setting [5] is: PKIS2 primary screening, DQ Red BSA spot count.

Read-outs that look alike come from different tables or passages of the source.
Wherever DQ Intensity is given: reference of the scale not given here.
Wherever DQ Spot is given: reference of the scale not given here.

In the case of `CC(C)c1nc(-c2cccc(NS(=O)(=O)c3c(F)cccc3F)c2F)c(-c2ccnc(Nc3ccc(N4CCOCC4)nc3)n2)s1` [UNC10224991A], in the data set with SH-SY5Y cells [1], the “Nuclear Count” value was found to be 54.49. The same compound came in with an AK with SH-SY5Y cells [2] of 96.03. The compound further yielded a TFE3 % in the data set with endogenous TFE3 (PKIS2 primary screening) of 13.92%. Also, in the data set on SH-SY5Y cells [3] (PKIS2 primary screening), the “DQ Intensity” value is reported as 137.04 and the “DQ Spot” value is reported as 135.69. The TFEB % in the data set with endogenous TFEB (PKIS2 primary screening) is on record as 5.34%.
`CN1C(=O)C(Nc2cc(Cl)c(O)c(Cl)c2)=C(c2ccc(Cl)cc2)C1=O` [UNC10225212A]: the “Nuclear Count” value in the data set with SH-SY5Y cells [1] amounted to 107.72. The AK in the data set with SH-SY5Y cells [2] was found to be 103.32. For the same compound, the TFE3 % with endogenous TFE3 (PKIS2 primary screening) is listed as 7.81%. The “DQ Intensity” value in the data set on SH-SY5Y cells [3] (setting [4]) is 96.22. In addition, in the data set on SH-SY5Y cells [3] (setting [5]), the “DQ Spot” value is reported as 97.02. In addition, in the data set with endogenous TFEB (PKIS2 primary screening), the TFEB % came to 3.71%.
Turning to `Cl.Cl.NCC(NC(=O)c1cc(-c2cccnc2)c(-c2ccnc3[nH]ccc23)s1)c1ccccc1` (stereo not drawn) [UNC10225315A], in the data set on SH-SY5Y cells [1], the “Nuclear Count” value is 113.28. Besides, the AK with SH-SY5Y cells [2] was found to be 87.17. In the data set with endogenous TFE3 (PKIS2 primary screening), this compound yielded a TFE3 % of 8.64%. Further, the “DQ Intensity” value in the data set on SH-SY5Y cells [3] (setting [4]) was found to be 78.29. The “DQ Spot” value with SH-SY5Y cells [3] (setting [5]) is 90.57. This compound returned a TFEB % in the data set on endogenous TFEB (PKIS2 primary screening) of 2.45%.
In the case of `Cc1cc(NCC(c2ccccc2)c2ccccc2)nc(NCc2ccc(C(F)(F)F)cc2)n1` [GW497681], the “Nuclear Count” value in the data set on SH-SY5Y cells [1] is listed as 83.96. This compound also had an AK with SH-SY5Y cells [2] of 143.14. Also, in the data set with endogenous TFE3 (PKIS2 primary screening), the TFE3 % came out at 31.99%. Further, the “DQ Intensity” value in the data set with SH-SY5Y cells [3] (setting [4]) turned out to be 118.39. In addition, the “DQ Spot” value in the data set with SH-SY5Y cells [3] (setting [5]) worked out at 90.21. The TFEB % in the data set with endogenous TFEB (PKIS2 primary screening) is 10.26%.
Take `CNC(=O)c1ccccc1Nc1nc(Nc2cccc(CS(C)(=O)=O)c2)ncc1C` [GSK1520489]: the “Nuclear Count” value in the data set on SH-SY5Y cells [1] turned out to be 38.33. Besides, the AK in the data set on SH-SY5Y cells [2] is 149.13. Besides, the TFE3 % with endogenous TFE3 (PKIS2 primary screening) amounted to 10.71%. For the same compound, the “DQ Intensity” value in the data set with SH-SY5Y cells [3] (setting [4]) was determined as 192.20. Further, the “DQ Spot” value in the data set with SH-SY5Y cells [3] (setting [5]) stood at 118.45. This compound had a TFEB % in the data set on endogenous TFEB (PKIS2 primary screening) of 10.40%.
On to `O=C(Nc1ccccc1F)NC1CCN(c2ccnc(Nc3ccc(F)cc3)n2)CC1` [GSK1379800], for which the “Nuclear Count” value with SH-SY5Y cells [1] turned out to be 118.12. In addition, the AK in the data set on SH-SY5Y cells [2] came out at 198.42. Further, in the data set with endogenous TFE3 (PKIS2 primary screening), the TFE3 % came to 9.18%. Moreover, in the data set with SH-SY5Y cells [3] (setting [4]), the “DQ Intensity” value was 95.32. Besides, in the data set on SH-SY5Y cells [3] (setting [5]), the “DQ Spot” value is listed as 97.06. The compound also came in with a TFEB % in the data set with endogenous TFEB (PKIS2 primary screening) of 6.86%.
Consider `C[C@@H](Oc1cc(-n2cnc3ccc(NC(=O)NC(C)(C)C)cc32)sc1C(N)=O)c1ccccc1Cl` [UNC10225287A], for which, in the data set on SH-SY5Y cells [1], the “Nuclear Count” value was 136.32. The compound also came in with an AK in the data set on SH-SY5Y cells [2] of 76.21. The TFE3 % with endogenous TFE3 (PKIS2 primary screening) came out at 9.35%. Also, in the data set with SH-SY5Y cells [3] (PKIS2 primary screening), the “DQ Intensity” value was 115.96 and the “DQ Spot” value turned out to be 109.60. In the data set with endogenous TFEB (PKIS2 primary screening), this compound had a TFEB % of 3.50%.
On to `CC(C)c1nc(-c2cccc(NS(=O)(=O)c3c(F)cccc3F)c2)c(-c2ccnc(Nc3ccc(N4CCOCC4)nc3)n2)s1.Cl` [UNC10225142A], for which the “Nuclear Count” value in the data set on SH-SY5Y cells [1] turned out to be 103.74. This compound also came in with an AK in the data set on SH-SY5Y cells [2] of 81.90. Further, the TFE3 % in the data set with endogenous TFE3 (PKIS2 primary screening) is 11.69%. In the data set on SH-SY5Y cells [3] (PKIS2 primary screening), the “DQ Intensity” value is listed as 106.42 and the “DQ Spot” value amounted to 109.80. The compound also had a TFEB % with endogenous TFEB (PKIS2 primary screening) of 18.86%.
As for `Cc1occc1-c1nc(N)c(OC[C@@H](N)Cc2c[nH]c3ccccc23)cc1-c1cc2c(C)n[nH]c2cn1` [UNC10225217A], in the data set on SH-SY5Y cells [1], the “Nuclear Count” value came to 82.67. For the same compound, the AK with SH-SY5Y cells [2] amounted to 91.49. In addition, the TFE3 % in the data set on endogenous TFE3 (PKIS2 primary screening) was found to be 15.99%. Moreover, in the data set with SH-SY5Y cells [3] (PKIS2 primary screening), the “DQ Intensity” value worked out at 96.09 and the “DQ Spot” value is reported as 101.21. This compound displayed a TFEB % with endogenous TFEB (PKIS2 primary screening) of 6.02%.
Consider `O=C(Nc1cccc(-c2nn3ccccc3c2-c2ccnc(Nc3cccc(C(F)(F)F)c3)n2)c1)c1c(F)cccc1F` [UNC10225325A], for which the “Nuclear Count” value in the data set on SH-SY5Y cells [1] is on record as 61.45. The compound further gave an AK in the data set with SH-SY5Y cells [2] of 71.36. In the data set with endogenous TFE3 (PKIS2 primary screening), this compound gave a TFE3 % of 14.69%. In the data set on SH-SY5Y cells [3] (PKIS2 primary screening), the “DQ Intensity” value is listed as 102.24 and the “DQ Spot” value amounted to 131.00. In the data set on endogenous TFEB (PKIS2 primary screening), this compound gave a TFEB % of 6.17%.
Turning to `COc1ccc(Nc2nccc(N3CCC(NC(=O)c4cccc(NC(C)=O)c4)C3)n2)cc1` (stereo not drawn) [GSK1379732], in the data set with SH-SY5Y cells [1], the “Nuclear Count” value turned out to be 135.73. In the data set with SH-SY5Y cells [2], this compound returned an AK of 83.81. In the data set on endogenous TFE3 (PKIS2 primary screening), this compound had a TFE3 % of 6.22%. Moreover, the “DQ Intensity” value in the data set on SH-SY5Y cells [3] (setting [4]) was determined as 114.89. The “DQ Spot” value in the data set with SH-SY5Y cells [3] (setting [5]) is recorded as 106.49. The compound also registered a TFEB % in the data set with endogenous TFEB (PKIS2 primary screening) of 5.92%.
As for `c1ccc(-c2n[nH]cc2-c2ccnc3ccccc23)nc1` [UNC10225289A], the “Nuclear Count” value with SH-SY5Y cells [1] is 134.93. Moreover, the AK with SH-SY5Y cells [2] worked out at 102.26. In addition, in the data set on endogenous TFE3, the TFE3 % worked out at 7.71%. For the same compound, in the data set with SH-SY5Y cells [3], the “DQ Intensity” value amounted to 80.70 and the “DQ Spot” value is listed as 82.58. In the data set with endogenous TFEB, this compound registered a TFEB % of 2.12%.
For `CN1CCN(CCNc2nc3ccc(Oc4ccc(NC(=O)Nc5cc(C(F)(F)F)ccc5F)cc4)cc3[nH]2)CC1` [GW768504], the “Nuclear Count” value with SH-SY5Y cells [1] amounted to 72.38. Further, the AK in the data set with SH-SY5Y cells [2] came out at 155.92. In the data set on endogenous TFE3 (PKIS2 primary screening), this compound came in with a TFE3 % of 12.94%. Besides, the “DQ Intensity” value with SH-SY5Y cells [3] (setting [4]) was 103.13. The “DQ Spot” value with SH-SY5Y cells [3] (setting [5]) is recorded as 113.95. Also, the TFEB % with endogenous TFEB (PKIS2 primary screening) is listed as 4.72%.

The record behind these values is article PMC9851200, “Multiparameter phenotypic screening for endogenous TFEB and TFE3 translocation identifies novel chemical series modulating lysosome function” (Autophagy, 2022).
